Assays:
Format in all cases: cell-based
Moraxella catarrhalis = assay: MIC against Gram-negative bacteria: Moraxella catarrhalis; details: 5×10^5 CFU/mL
In short: (§1)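 First, colonies from LB agar were grown in LB at 37° C, 185 rpm, to McFarland turbidity 0.5, then centrifuged and resuspended in fresh LB. Next, wells received 5×10^5 CFU/mL bacteria plus two-fold serially diluted EGF domain protein (triplicate). Finally, plates were shaken at 37° C and the no-growth concentration taken as MIC.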

Proteus mirabilis = assay: MIC against Gram-negative bacteria: Proteus mirabilis; details: 5×10^5 CFU/mL
In short: as §1

Citrobacter diversus = assay: MIC against Gram-negative bacteria: Citrobacter diversus; details: 5×10^5 CFU/mL
In short: as §1

Enterobacter cloacae = assay: MIC against Gram-negative bacteria: Enterobacter cloacae; details: 5×10^5 CFU/mL
In short: as §1

Aeromonas hydrophila = assay: MIC against Gram-negative bacteria: Aeromonas hydrophila; details: 5×10^5 CFU/mL
In short: as §1

Serratia marcescens = assay: MIC against Gram-negative bacteria: Serratia marcescens; details: 5×10^5 CFU/mL
In short: as §1

E. coli BL21 = assay: MIC against Gram-negative bacteria: E. coli BL21; details: 5×10^5 CFU/mL
In short: as §1

E. coli DH5α = assay: Antibacterial activity: MIC and growth curve against E. coli DH5α in 96-well plate; details: minimal inhibitory concentration against E. coli DH5α; 96-well plate, 5×10^5 CFU/mL, 37° C., judged after 8 h
In short: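 Log-phase DH5α (OD600 about 0.5, 37° C, 185 rpm in LB) was pelleted, resuspended in fresh LB and seeded at 5×10^5 CFU/mL with recombinant protein at 50, 25 and 12.5 μg/mL (two-fold series), in triplicate. Plates were shaken at 175 rpm, 37° C, and OD600 was read every 30 min. MIC was the lowest concentration with no growth.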

Klebsiella pneumonia = assay: MIC against Gram-negative bacteria: Klebsiella pneumonia; details: 5×10^5 CFU/mL
In short: as §1

Proteus vulgaris = assay: MIC against Gram-negative bacteria: Proteus vulgaris; details: 5×10^5 CFU/mL
In short: as §1

Pseudomonas aeruginosa = assay: MIC against Gram-negative bacteria: Pseudomonas aeruginosa; details: 5×10^5 CFU/mL
In short: as §1

[1] = Moraxella catarrhalis, 96-well plate, 37° C., 10 h
[2] = Proteus mirabilis, 96-well plate, 37° C., 10 h
[3] = Citrobacter diversus, 96-well plate, 37° C., 10 h
[4] = Enterobacter cloacae, 96-well plate, 37° C., 10 h
[5] = Aeromonas hydrophila, 96-well plate, 37° C., 10 h
[6] = Serratia marcescens, 96-well plate, 37° C., 10 h
[7] = E. coli BL21, 96-well plate, 37° C., 10 h
[8] = Klebsiella pneumonia, 96-well plate, 37° C., 10 h
[9] = Proteus vulgaris, 96-well plate, 37° C., 10 h
[10] = Pseudomonas aeruginosa, 96-well plate, 37° C., 10 h
[11] = E. coli BL21, 10 h cultivation at 37° C.
[12] = Moraxella catarrhalis, 10 h cultivation at 37° C.
[13] = Proteus mirabilis, 10 h cultivation at 37° C.
[14] = Citrobacter diversus, 10 h cultivation at 37° C.
[15] = Enterobacter cloacae, 10 h cultivation at 37° C.
[16] = Aeromonas hydrophila, 10 h cultivation at 37° C.
[17] = Serratia marcescens, 10 h cultivation at 37° C.
[18] = Klebsiella pneumonia, 10 h cultivation at 37° C.
[19] = Proteus vulgaris, 10 h cultivation at 37° C.
[20] = Pseudomonas aeruginosa, 10 h cultivation at 37° C.
[21] = 10 h cultivation at 37° C., two-fold serial dilution

PRT512 (CACPLISSSNNFSPSCVAEGLDDYRCTACPRGYEGQYCERCAPGYTGSPGNPGGSCQE; listed as Homo sapiens)
25 µg/mL: MIC against M. catarrhalis (Moraxella catarrhalis; 96-well plate, 37° C., 10 h) | MIC against A. hydrophila (Aeromonas hydrophila; 96-well plate, 37° C., 10 h) | MIC against E. coli BL21 (E. coli BL21; 96-well plate, 37° C., 10 h) | MIC against K. pneumonia (Klebsiella pneumonia; 96-well plate, 37° C., 10 h) | MIC against P. vulgaris (Proteus vulgaris; 96-well plate, 37° C., 10 h)
50 µg/mL: MIC against P. mirabilis (Proteus mirabilis; 96-well plate, 37° C., 10 h) | MIC against E. cloacae (Enterobacter cloacae; 96-well plate, 37° C., 10 h) | MIC (E. coli DH5α)
12.5 µg/mL: MIC against C. diversus (Citrobacter diversus; 96-well plate, 37° C., 10 h) | MIC against S. marcescens (Serratia marcescens; 96-well plate, 37° C., 10 h) | MIC against P. aeruginosa (Pseudomonas aeruginosa; 96-well plate, 37° C., 10 h)

PRT1300 (VIDHCVPELNLCQHEAKCIPLDKGFSCECVPGYSGKLCE; listed as Homo sapiens)
25 µg/mL: MIC against E. cloacae (Enterobacter cloacae; [4]) | MIC against P. aeruginosa (Pseudomonas aeruginosa; [10])
50 µg/mL: MIC against A. hydrophila (Aeromonas hydrophila; [5]) | MIC against E. coli BL21 (E. coli BL21; [7])
12.5 µg/mL: MIC against M. catarrhalis (Moraxella catarrhalis; [1]) | MIC against P. mirabilis (Proteus mirabilis; [2]) | MIC against C. diversus (Citrobacter diversus; [3]) | MIC against S. marcescens (Serratia marcescens; [6]) | MIC (E. coli DH5α) | MIC against K. pneumonia (Klebsiella pneumonia; [8]) | MIC against P. vulgaris (Proteus vulgaris; [9])

PRT786 (YGKDCALICQCQNGADCDHISGQCTCRTGFMGRHCE; listed as Homo sapiens)
12.5 µg/mL: MIC (μg/mL) M. catarrhalis (Moraxella catarrhalis; 10 h cultivation at 37° C.) | MIC (μg/mL) E. cloacae (Enterobacter cloacae; 10 h cultivation at 37° C.) | MIC (μg/mL) A. hydrophila (Aeromonas hydrophila; 10 h cultivation at 37° C.) | MIC (μg/mL) S. marcescens (Serratia marcescens; 10 h cultivation at 37° C.) | MIC (μg/mL) P. vulgaris (Proteus vulgaris; 10 h cultivation at 37° C.) | MIC (μg/mL) P. aeruginosa (Pseudomonas aeruginosa; 10 h cultivation at 37° C.)
50 µg/mL: MIC (E. coli DH5α) | MIC (μg/mL) K. pneumonia (Klebsiella pneumonia; 10 h cultivation at 37° C.)
25 µg/mL: MIC (μg/mL) P. mirabilis (Proteus mirabilis; 10 h cultivation at 37° C.) | MIC (μg/mL) C. diversus (Citrobacter diversus; 10 h cultivation at 37° C.) | MIC (μg/mL) E. coli BL21 (E. coli BL21; [11])

PRT1361 (SELICPNDCFDRGRCINGTCYCEEGFTGEDCG; listed as Homo sapiens)
25 µg/mL: MIC against M. catarrhalis (Moraxella catarrhalis; [12]) | MIC against A. hydrophila (Aeromonas hydrophila; [16]) | MIC (E. coli DH5α) | MIC against P. vulgaris (Proteus vulgaris; [19]) | MIC against P. aeruginosa (Pseudomonas aeruginosa; [20])
12.5 µg/mL: MIC against P. mirabilis (Proteus mirabilis; [13]) | MIC against E. cloacae (Enterobacter cloacae; [15]) | MIC against E. coli BL21 (E. coli BL21; [11])
50 µg/mL: MIC against C. diversus (Citrobacter diversus; [14]) | MIC against S. marcescens (Serratia marcescens; [17]) | MIC against K. pneumonia (Klebsiella pneumonia; [18])

PRT1352 (SEPECPGNCHLRGRCIDGQCICDDGFTGEDCS; listed as Homo sapiens)
50 µg/mL: MIC against C. diversus (Citrobacter diversus; [14]) | MIC against P. vulgaris (Proteus vulgaris; [19])
12.5 µg/mL: MIC against M. catarrhalis (Moraxella catarrhalis; [12]) | MIC against E. cloacae (Enterobacter cloacae; [15]) | MIC against A. hydrophila (Aeromonas hydrophila; [16]) | MIC against E. coli BL21 (E. coli BL21; [11]) | MIC (E. coli DH5α) | MIC against K. pneumonia (Klebsiella pneumonia; [18]) | MIC against P. aeruginosa (Pseudomonas aeruginosa; [20])
25 µg/mL: MIC against P. mirabilis (Proteus mirabilis; [13]) | MIC against S. marcescens (Serratia marcescens; [17])

PRT165 (DVRACSSAPCANNGTCVSLDDGLYECSCAPGYSGKDCQ; listed as Homo sapiens)
12.5 µg/mL: MIC (μg/mL) P. mirabilis (Proteus mirabilis; 10 h cultivation at 37° C.) | MIC (μg/mL) S. marcescens (Serratia marcescens; 10 h cultivation at 37° C.) | MIC (μg/mL) E. coli BL21 (E. coli BL21; [11]) | MIC (E. coli DH5α) | MIC (μg/mL) K. pneumonia (Klebsiella pneumonia; 10 h cultivation at 37° C.)
25 µg/mL: MIC (μg/mL) M. catarrhalis (Moraxella catarrhalis; 10 h cultivation at 37° C.) | MIC (μg/mL) C. diversus (Citrobacter diversus; 10 h cultivation at 37° C.) | MIC (μg/mL) E. cloacae (Enterobacter cloacae; 10 h cultivation at 37° C.) | MIC (μg/mL) A. hydrophila (Aeromonas hydrophila; 10 h cultivation at 37° C.) | MIC (μg/mL) P. vulgaris (Proteus vulgaris; 10 h cultivation at 37° C.) | MIC (μg/mL) P. aeruginosa (Pseudomonas aeruginosa; 10 h cultivation at 37° C.)

PRT521 (CNCNSFGSKSFDCEESGQCWCQPGVTGKKCDRCAHGYFNFQEGGCTA; listed as Homo sapiens)
12.5 µg/mL: MIC against C. diversus (Citrobacter diversus; 96-well plate, 37° C., 10 h) | MIC against S. marcescens (Serratia marcescens; 96-well plate, 37° C., 10 h) | MIC against P. aeruginosa (Pseudomonas aeruginosa; 96-well plate, 37° C., 10 h)
50 µg/mL: MIC against P. mirabilis (Proteus mirabilis; 96-well plate, 37° C., 10 h) | MIC against E. cloacae (Enterobacter cloacae; 96-well plate, 37° C., 10 h) | MIC (E. coli DH5α)
25 µg/mL: MIC against M. catarrhalis (Moraxella catarrhalis; 96-well plate, 37° C., 10 h) | MIC against A. hydrophila (Aeromonas hydrophila; 96-well plate, 37° C., 10 h) | MIC against E. coli BL21 (E. coli BL21; 96-well plate, 37° C., 10 h) | MIC against K. pneumonia (Klebsiella pneumonia; 96-well plate, 37° C., 10 h) | MIC against P. vulgaris (Proteus vulgaris; 96-well plate, 37° C., 10 h)

PRT1295 (RTSPCDNFDCQNGAQCIVRINEPICQCLPGYQGEKCE; listed as Homo sapiens)
50 µg/mL: MIC against M. catarrhalis (Moraxella catarrhalis; [1]) | MIC against A. hydrophila (Aeromonas hydrophila; [5]) | MIC against E. coli BL21 (E. coli BL21; [7]) | MIC against K. pneumonia (Klebsiella pneumonia; [8]) | MIC against P. vulgaris (Proteus vulgaris; [9])
12.5 µg/mL: MIC against P. mirabilis (Proteus mirabilis; [2]) | MIC against C. diversus (Citrobacter diversus; [3]) | MIC against E. cloacae (Enterobacter cloacae; [4]) | MIC against S. marcescens (Serratia marcescens; [6]) | MIC (E. coli DH5α) | MIC against P. aeruginosa (Pseudomonas aeruginosa; [10])

PRT1068 (DINECLRFGTCSQLCNNTKGGHLCSCARNFMKTHNTCK; listed as Homo sapiens)
50 µg/mL: MIC A. hydrophila (Aeromonas hydrophila; [21]) | MIC E. coli BL21 (E. coli BL21; [21]) | MIC P. vulgaris (Proteus vulgaris; [21])
12.5 µg/mL: MIC M. catarrhalis (Moraxella catarrhalis; [21]) | MIC (E. coli DH5α) | MIC K. pneumonia (Klebsiella pneumonia; [21])
25 µg/mL: MIC P. mirabilis (Proteus mirabilis; [21]) | MIC C. diversus (Citrobacter diversus; [21]) | MIC E. cloacae (Enterobacter cloacae; [21]) | MIC S. marcescens (Serratia marcescens; [21]) | MIC P. aeruginosa (Pseudomonas aeruginosa; [21])

PRT612 (CPCPGGSSCAVVPKTKEVVCTNCPTGTTGKRCELCDDGYFGDPLGRNGPVRLCRL; listed as Homo sapiens)
12.5 µg/mL: MIC A. hydrophila (Aeromonas hydrophila; 96-well plate, 37° C., 10 h) | MIC E. coli BL21 (E. coli BL21; 96-well plate, 37° C., 10 h) | MIC P. vulgaris (Proteus vulgaris; 96-well plate, 37° C., 10 h)
50 µg/mL: MIC M. catarrhalis (Moraxella catarrhalis; 96-well plate, 37° C., 10 h) | MIC K. pneumonia (Klebsiella pneumonia; 96-well plate, 37° C., 10 h)
25 µg/mL: MIC P. mirabilis (Proteus mirabilis; 96-well plate, 37° C., 10 h) | MIC C. diversus (Citrobacter diversus; 96-well plate, 37° C., 10 h) | MIC E. cloacae (Enterobacter cloacae; 96-well plate, 37° C., 10 h) | MIC S. marcescens (Serratia marcescens; 96-well plate, 37° C., 10 h) | MIC (E. coli DH5α) | MIC P. aeruginosa (Pseudomonas aeruginosa; 96-well plate, 37° C., 10 h)

Source: patent publication US9833497B2, “Human originated EGF domain proteins and use of the same” (CHENGDU SOURCEBIO LIMITED-LIABILITY COMPANY, priority 2013, dated 2017)
